According to article PMC5603573, “Cyclipostins and Cyclophostin analogs as promising compounds in the fight against tuberculosis” (Scientific Reports, 2017):
In brackets after ≈: the same amount, converted by molar mass. Like-named read-outs stand apart in the source and are kept apart here.

What was measured:
M. tb mc^26230-Ag85C = assay: microbe, parasite or virus in culture; assay type: cell-based, Mycobacterium tuberculosis
M. tb mc^26230-Rv0183 = assay: microbe, parasite or virus in culture; assay type: cell-based, Mycobacterium tuberculosis
[1] = tested on: M. tb mc^26230-empty vector; assay: REMA, empty vector strain; assay type: cell-based, Mycobacterium tuberculosis
M. tb mc^26230-LipH = assay: microbe, parasite or virus in culture; assay type: cell-based, Mycobacterium tuberculosis; settings: for MIC50: REMA
M. tb mc^26230-HsaD = assay: microbe, parasite or virus in culture; assay type: cell-based, Mycobacterium tuberculosis; settings: for MIC50: REMA
M. tb mc^26230-Ag85A = assay: microbe, parasite or virus in culture; assay type: cell-based, Mycobacterium tuberculosis
M. tb mc^26230-TesA = assay: microbe, parasite or virus in culture; assay type: cell-based, Mycobacterium tuberculosis
M. tb mc^26230 WT = assay: microbe, parasite or virus in culture; assay type: cell-based
[2] = Mycobacterium tuberculosis, REMA

## CCCCCCCCCCCCCCCCOP1(=O)OCCC(C(=O)OC)=C(C)O1 (stereo not drawn) [CyC 17]
M. tb mc^26230-Ag85C
  MIC50 ratio mutant/WT: 0.98
M. tb mc^26230-Ag85C; [2]
  MIC50: 0.54 ± 0.009 µM (≈ 0.241 µg/mL)
M. tb mc^26230-Rv0183; M. tb mc^26230-Rv0183
  MIC50 ratio mutant/WT: 0.80
M. tb mc^26230-Rv0183; Mycobacterium tuberculosis, M. tb mc^26230-Rv0183, REMA
  MIC50: 0.44 ± 0.013 µM (≈ 0.196 µg/mL)
[1]
  MIC50 ratio mutant/WT: 0.95
M. tb mc^26230-LipH
  increase in the MIC50 value compared to WT strain: around 1.3 fold
M. tb mc^26230-LipH; M. tb mc^26230-LipH
  MIC50 ratio mutant/WT: 1.31
  MIC50: 0.72 ± 0.020 µM (≈ 0.322 µg/mL)
M. tb mc^26230-LipH; Mycobacterium tuberculosis, M. tb mc^26230-LipH, read-out: MIC50
  MIC50: 0.72 ± 0.02 µM (≈ 0.322 µg/mL)
M. tb mc^26230-HsaD
  increase in MIC50 value compared to WT strain: 2.2 fold
M. tb mc^26230-HsaD; M. tb mc^26230-HsaD
  MIC50 ratio mutant/WT: 2.18
  MIC50: 1.20 ± 0.026 µM (≈ 0.536 µg/mL)
M. tb mc^26230-HsaD; Mycobacterium tuberculosis, M. tb mc^26230-HsaD, read-out: MIC50
  MIC50: 1.2 ± 0.026 µM (≈ 0.536 µg/mL)
M. tb mc^26230-Ag85A
  MIC50 ratio mutant/WT: 1.00
M. tb mc^26230-Ag85A; [2]
  MIC50: 0.55 ± 0.014 µM (≈ 0.246 µg/mL)
M. tb mc^26230-TesA
  MIC50 ratio mutant/WT: 0.95
M. tb mc^26230-TesA; [2]
  MIC50: 0.52 ± 0.012 µM (≈ 0.232 µg/mL)
M. tb mc^26230 WT
  MIC50 ratio mutant/WT: 1.00
